{"source": "patent US8168656B2", "about": "“Indoleacetic acid and indenacetic acid derivatives as therapeutic agents with reduced gastrointestinal toxicity” (Vanderbilt University, priority 2009, dated 2012)", "key": {"wild type mCOX-2": {"target": "T1, wild type mCOX-2 (Mus musculus, UniProt Q05769)", "T1 construct": "made in house; host or cells: Sf9 insect cells (baculovirus, pVL1393)", "T1 sequence (Q05769 18-604)": "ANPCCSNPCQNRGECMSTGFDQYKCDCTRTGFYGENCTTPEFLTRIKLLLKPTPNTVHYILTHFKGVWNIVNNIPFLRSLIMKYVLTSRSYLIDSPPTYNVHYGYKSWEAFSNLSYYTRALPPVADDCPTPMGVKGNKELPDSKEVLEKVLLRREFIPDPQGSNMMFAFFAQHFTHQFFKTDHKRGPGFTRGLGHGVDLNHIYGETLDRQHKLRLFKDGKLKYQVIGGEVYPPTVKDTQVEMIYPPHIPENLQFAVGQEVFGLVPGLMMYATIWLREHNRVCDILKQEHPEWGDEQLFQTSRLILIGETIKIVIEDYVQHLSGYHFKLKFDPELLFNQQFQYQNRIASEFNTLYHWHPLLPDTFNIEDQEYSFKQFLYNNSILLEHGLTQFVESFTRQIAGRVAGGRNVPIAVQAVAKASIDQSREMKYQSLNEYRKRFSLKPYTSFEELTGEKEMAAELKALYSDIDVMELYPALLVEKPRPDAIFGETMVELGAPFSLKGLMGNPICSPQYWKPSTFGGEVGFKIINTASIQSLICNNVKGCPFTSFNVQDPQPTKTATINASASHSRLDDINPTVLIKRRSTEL", "assay": "Activity recovery assay (reversibility of COX inhibition)", "assay_type": "biochemical, murine", "conditions": "10 μM inhibitor, 50 μM AA", "experimental": "(§1) The reversibility of the second step in equation (1) could be directly evaluated by the amount of enzyme activity recovered after a prolonged incubation time with substrate. […] The enzymes were pre-incubated for 20 minutes with DMSO or 10 μM INDO, prior to the addition of 50 μM AA. After addition of AA, the oxygenation reactions were allowed to proceed for varying lengths of time. As the reaction time increased, the extent of inhibition decreased if INDO binding was reversible. The time course for recovery of AA oxygenation was fit to a single exponential (FIG. 3A).\n(§2) The reversibility of DM-INDO inhibition was evaluated similarly to INDO using the activity recovery assay (FIG. 3). The experiments and analysis were performed as described above."}, "mCOX-2^V349I": {"target": "T2, mCOX-2^V349I (Mus musculus, UniProt Q05769, V335I)", "T2 construct": "made in house; host or cells: Sf9 insect cells (baculovirus, pVL1393)", "T2 sequence (Q05769 18-604 V335I)": "T1 sequence (Q05769 18-604) with V318I", "assay": "Activity recovery assay (reversibility of COX inhibition)", "assay_type": "biochemical, murine", "conditions": "10 μM inhibitor, 50 μM AA", "experimental": "as §1, §2"}}, "note": "Numbering of substitutions follows the chain as printed."}
{"smiles": "COc1ccc2c(c1)c(CC(=O)O)cn2C(=O)c1ccc(Cl)cc1", "note": "[DM-INDO, 2-Des-methylindomethacin]", "values": [{"measurement": "K−2^b (rate constant determined by reversible inhibition)", "setting": "wild type mCOX-2", "value": "0.023 ± 0.001", "unit": "s⁻¹"}, {"measurement": "K−2^b (rate constant determined by reversible inhibition)", "setting": "mCOX-2^V349I", "value": "0.015 ± 0.005", "unit": "s⁻¹"}]}
